Results as given in publication PMC13192270, “RhlR quorum-sensing receptor ligand sensitivity regulates the differential expression of phenazine genes in Pseudomonas aeruginosa” (Journal of Bacteriology, 2026).

Test system: ΔrhlI strain expressing RhlR T58L
Assay: RNA-seq gene expression
Format: cell-based, Pseudomonas aeruginosa
Set-up: opmD Expression value / mexI Expression value / mexH Expression value / mexG Expression value / lasB Expression value / rhlA Expression value / rhlB Expression value / rhlR Expression value / lecB Expression value / fhp Expression value / chiC Expression value / hcnA Expression value / mvfR Expression value / katB Expression value / norC Expression value / norB Expression value / katA Expression value: unit not given here
Conditions: 2 µM C4HSL
Protocol: To determine the effects of hypo- and hypersensitivity to C4HSL on RhlR-dependent transcription activation in P. aeruginosa, we performed RNA-seq on ΔrhlI strains expressing WT RhlR, RhlR T58L, and RhlR A44M in the presence of 2 µM C4HSL. We chose this approach to better control the levels of C4HSL across samples. All gene expression analyses were done relative to a ΔrhlI strain without exogenous supplementation of AHL. Thus, we examined the total increase in C4HSL-dependent gene regulation. We observed increased rhlA RNA levels in strains expressing WT RhlR and the RhlR T58L variant compared to ΔrhlI without C4HSL or a strain expressing the RhlR A44M variant (Table 2; Table S1). […] To corroborate our RNA-seq data, we built an rhlA promoter fusion to mScarlet and assayed reporter levels in the same genetic backgrounds as our transcriptomic experiment (Fig. S7D). Strains expressing hypersensitive RhlR variants produced similar levels of fluorescent signal relative to the WT strain, while a strain expressing a hyposensitive RhlR variant had diminished levels of fluorescent reporter (Fig. S7D).
A total of […] of overnight cultures was back diluted 1:100 in 20 mL of fresh LB media and incubated for 5 h at 37°C with shaking. Cells were harvested by centrifugation, and pellets were frozen until RNA extraction. RNA was extracted using the Invitrogen PureLink RNA Mini Kit. Pellets were resuspended in 100 µL lysozyme solution containing 10 mM Tris-HCl pH 8.0, 0.1 mM EDTA, and 1 mg/mL lysozyme. Five microliters of 1% SDS was added, and the solution was mixed with a vortex and incubated at room temperature for 5 min. A total of 350 µL lysis buffer (Invitrogen) was added with 10 µL 2-mercaptoethanol for each 1 mL of lysis buffer and vortexed. Cells were lysed by bead beating (BioSpec 0.1 MM Zirconia/Silica Beads) for two rounds of 50 s. Lysed cells were transferred to fresh microcentrifuge tubes with 250 µL of 100% ethanol and mixed with a vortex. Samples were spun in spin cartridges (Invitrogen) at 12,000 × g for 15 s at room temperature, and the flow-through was discarded. A total of 700 µL Wash Buffer I (Invitrogen) was added and spun at 12,000 × g for 15 s at room temperature, and the flow-through was discarded. A total of 500 µL Wash Buffer II (Invitrogen) with ethanol was added and centrifuged for 12,000 × g for 15 s at room temperature; the flow-through was discarded, and RNA samples were washed again. Cells were spun at 12,000 × g for 1 min at room temperature to dry the membrane with the bound RNA. A total of 50 µL RNAse-free water was added to the center of the spin cartridge, incubated at room temperature for 1 min, and centrifuged for 2 min at ≥12,000 × g at room temperature. Extracted RNA was then frozen at −80°C until further use.
Bulk RNA was sent to SeqCenter (Pittsburgh, PA) where it was processed for paired-end Illumina sequencing via rRNA depletion using Ribo-Zero Plus (Illumina). Fastq files generated by SeqCenter were processed using Rockhopper with default settings ([61][–][63]). Briefly, fastq files were aligned to the genome of Pseudomonas aeruginosa UCBPP-PA14. The reads were subsequently normalized using upper-quartile normalization, and transcript abundance was determined by reads per kilobase per million mapped reads. Differential gene expression analysis was conducted using a negative binomial distribution model, outputting a P-value for each transcript. The P-values were then corrected for false discovery using the Benjamini-Hochberg procedure, resulting in the q-values reported here (Table S2). SignalMap v2.0 (NimbleGen Systems) was used to visualize read counts for phzABCDEFG1/2, phzH, phzM, and phzS (Fig. 5). Aligned sequences generated in Rockhopper were converted to GFF files, and genes of interest were isolated into unique GFF files ([37]).

In the case of `CCCC(=O)N[C@H]1CCOC1=O` [C4HSL, N-butyryl-L-homoserine lactone], the “chiC Expression value” is reported as 3,615,357, the “fhp Expression value” is reported as 396,561.5 and the “hcnA Expression value” is reported as 9,523. For the same compound, the “katA Expression value” was 12,151,161, the “katB Expression value” was 2,895,168 and the “lasB Expression value” was 19,328,123.5. The “lecB Expression value” was 250,651, the “mexG Expression value” was 332,571.5 and the “mexH Expression value” was 723,774.5. For the same compound, the “mexI Expression value” was 830,527.5, the “mvfR Expression value” was 267,969 and the “norB Expression value” was 7,897,306. The “norC Expression value” was 3,026,578.5, the “opmD Expression value” was 525,347 and the “phnA Expression value” was 1,406,882.5. The “phnB Expression value” was 434,424, the “phzA1 Expression value” was 6,068 and the “phzA2 Expression value” was 61,057.5. For the same compound, the “phzB1 Expression value” was 73,793, the “phzB2 Expression value” was 1,991,168 and the “phzC1 Expression value” was 272,395.5. For the same compound, the “phzC2 Expression value” was 1,969,682.5, the “phzD1 Expression value” was 1,058,250 and the “phzD2 Expression value” was 977,075.5. For the same compound, the “phzE1 Expression value” was 2,058,712.5, the “phzE2 Expression value” was 1,532,300.5 and the “phzF1 Expression value” was 1,047,752.5. The “phzF2 Expression value” was 1,048,278.5, the “phzG1 Expression value” was 312,421.5 and the “phzG2 Expression value” was 1,165,545. For the same compound, the “phzM Expression value” was 79,302.5, the “phzS Expression value” was 377,065.5 and the “pqsA Expression value” was 870,485.5. For the same compound, the “pqsB Expression value” was 2,171,803.5, the “pqsC Expression value” was 2,097,049 and the “pqsD Expression value” was 2,742,260. The “pqsE Expression value” was 1,483,216.5, the “rhlA Expression value” was 879,447.5 and the “rhlB Expression value” was 741,717. For the same compound, the “rhlR Expression value” was 906,213, the “chiC Log2fold change” value (vs ΔrhlI without AHL) was 4.706 and the “fhp Log2fold change” value (vs ΔrhlI without AHL) was 5.681. The “hcnA Log2fold change” value (vs ΔrhlI without AHL) was −1.753, the “katA Log2fold change” value (vs ΔrhlI without AHL) was 1.97 and the “katB Log2fold change” value (vs ΔrhlI without AHL) was 7.877. For the same compound, the “lasB Log2fold change” value (vs ΔrhlI without AHL) was 2.595, the “lecB Log2fold change” value (vs ΔrhlI without AHL) was −0.51 and the “mexG Log2fold change” value (vs ΔrhlI without AHL) was 6.357. For the same compound, the “mexH Log2fold change” value (vs ΔrhlI without AHL) was 6.234, the “mexI Log2fold change” value (vs ΔrhlI without AHL) was 5.568 and the “mvfR Log2fold change” value (vs ΔrhlI without AHL) was 0.187. The “norB Log2fold change” value (vs ΔrhlI without AHL) was 7.599, the “norC Log2fold change” value (vs ΔrhlI without AHL) was 7.238 and the “opmD Log2fold change” value (vs ΔrhlI without AHL) was 6.207. The “phnA Log2fold change” value (vs ΔrhlI without AHL) was −0.7187, the “phnB Log2fold change” value (vs ΔrhlI without AHL) was −0.4007 and the “phzA1 Log2fold change” value (vs ΔrhlI without AHL) was −2.305. The “phzA2 Log2fold change” value (vs ΔrhlI without AHL) was 2.537, the “phzB1 Log2fold change” value (vs ΔrhlI without AHL) was −2.194 and the “phzB2 Log2fold change” value (vs ΔrhlI without AHL) was 3.237. The “phzC1 Log2fold change” value (vs ΔrhlI without AHL) was 0.3098, the “phzC2 Log2fold change” value (vs ΔrhlI without AHL) was 3.428 and the “phzD1 Log2fold change” value (vs ΔrhlI without AHL) was 2.278. The “phzD2 Log2fold change” value (vs ΔrhlI without AHL) was 2.374, the “phzE1 Log2fold change” value (vs ΔrhlI without AHL) was 2.344 and the “phzE2 Log2fold change” value (vs ΔrhlI without AHL) was 2.345. The “phzF1 Log2fold change” value (vs ΔrhlI without AHL) was 2.194, the “phzF2 Log2fold change” value (vs ΔrhlI without AHL) was 2.188 and the “phzG1 Log2fold change” value (vs ΔrhlI without AHL) was 0.6164. The “phzG2 Log2fold change” value (vs ΔrhlI without AHL) was 3.389, the “phzM Log2fold change” value (vs ΔrhlI without AHL) was −2.128 and the “phzS Log2fold change” value (vs ΔrhlI without AHL) was −0.989. For the same compound, the “pqsA Log2fold change” value (vs ΔrhlI without AHL) was −1.603, the “pqsB Log2fold change” value (vs ΔrhlI without AHL) was −0.7949 and the “pqsC Log2fold change” value (vs ΔrhlI without AHL) was −0.8699. The “pqsD Log2fold change” value (vs ΔrhlI without AHL) was −0.6876, the “pqsE Log2fold change” value (vs ΔrhlI without AHL) was −0.7631 and the “rhlA Log2fold change” value (vs ΔrhlI without AHL) was 1.8. For the same compound, the “rhlB Log2fold change” value (vs ΔrhlI without AHL) was 2.488 and the “rhlR Log2fold change” value (vs ΔrhlI without AHL) was 0.5062.
